Experimental data from paper PMC4724521 (Phytochemistry, 2015).

Tests used:
[1] = tested on: K. brevis EH; experiment: Inhibition assay of purified EH with fluorescent substrate 5b; type: biochemical, Karenia brevis; settings: substrate 5b 100 μM, EH 0.1 mg/ml, 2 min preincubation, pH 7.0, 30 °C
[2] = biological target: Rhodococcus erythropolis LEH; settings: ref Arand et al., 2003; cited from earlier work
[3] = tested on: EH activity of K. brevis CFE

Structure (SMILES) | IC50 [1] | Ki [2] | inhibition of total EH activity (in words) [3]
C[C@H]1O[C@@H]1c1ccccc1 (relative stereo) [trans-β-methylstyrene oxide-, trans-β-methylstyrene oxide] | 14.3 mM |  | 
CC1OC1c1ccccc1 (stereo not drawn) [cis-β-methylstyrene oxide] | 3.05 mM |  | 
CCCC(CCC)C(N)=O [valpromide 8, valpromide] |  | 0.1 mM | only adamantly urea 7 inhibited the total activity
CC1(C)OC1c1ccccc1 (stereo not drawn) [β-dimethylstyrene oxide] | 6.99 mM |  | 
